Data as given in patent publication US20050112573A1, “Method of detecting toxic substance” (priority 2001, published 2005).
Read-outs that look alike come from different tables or passages of the source.

Columns and labels:
Assay type in all cases: cell-based, Saccharomyces cerevisiae W303
[1] = tested on: promoter of yeast gene YOR382w
Text: (§1) The inventors of the present application understood that the induction of certain yeast genes by toxic substances is caused by the activation of the promoters of the genes by the toxic substances. Thus, the inventors prepared a vector that comprised a polynucleotide sequence comprising the promoter of the yeast gene, which sequence is operably linked to a polynucleotide encoding a marker protein; and transformed yeast cells with the vector. […] The working examples hereinafter illustrate the preparation of such vectors, transformation of yeast cells by use of said vectors, and the detection of toxic substances by use of the transformed cells.
(§2) Promoter assay is a method for determining variations of the level of intracellular genes without destroying cells on the basis of the level of expressed marker genes instead of the expressed mRNA. The gene selected to detect a chemical substance is expressed in the absence of chemical substances, and thus a marker protein also occurs in the absence of chemical substances. In the method according to the present invention, the behavior of yeast genes on the addition of test materials is determined on the basis of the level of expressed marker protein so that the presence or the absence, and the kind of toxic chemical substances are predicted. Thus, it is desired that the production of marker proteins is lower in the absence of chemical substances, and the production of marker proteins is higher in the presence of chemical substances.
(§3) Type YEp shuttle vector pYES2 (pYES2, Cat no: V825-20, Invirtogen Corporation, USA), which can be replicated both in E. coli. and yeast was used as vector (R. W. Old, S. B. Primrose Principles of Gene Manipulation 5th Ed., BAIFUKAN CO., LTD, pp138-165, pp.234-263, 2000). The portion of vector pQBI 63 (Cat no.54-0082, Wako Pure Chemical Industries, Ltd.) corresponding to a marker protein GFP was used as the polynucleotide encoding GFP (SEQ ID No: 6). First, the GFP polynucleotide was inserted into the multiple cloning sites of pYES2 to give a vector. Thereafter, the GAL1 promoter of pYES2 was replaced with the polynucleotide comprising the promoter sequence of the intended yeast gene YOR382w (SEQ ID No: 3) to give an intended plasmid vector. Suitable restriction enzymes were selected, and the insertion of the polynucleotide comprising GFP and the promoter sequence was conducted.
(§4) Next, the yeast Saccharomyces cerevisiae W303 was transformed with the resultant plasmid vector according to the following procedures: • 1) Incubating the yeast Saccharomyces cerevisiae W303 in 200 ml of SD medium under shaking until OD 660 reaches 0.5; • 2) Suspending the collected cells in 5 ml of TE-buffer; • 3) Adding 250 μL of 2.5M lithium acetate; • 4) Dispending each 300 μl, adding 10 μl of above plasmid vector thereto, then incubating the suspensions at 30° C. for 30 minutes; • 5) Adding 700 μl of 50% PEG4000, and incubating the mixture under shaking at 30° C. for 60 minutes; • 6) Giving heat shock (42° C., 5 minutes), and then immediately cooling the mixture; • 7) Washing the mixture twice with 1M sorbitol; and • 8) Seeding it on agar plates made of minimum essential medium.
(§5) The cells of SC-YOR382W-pQBI as prepared in Example 4 were contacted to one of the following compounds. The yeast cells SC-YOR382W-pQBI were incubated at 25° C. in SD medium (Yeast nitrogen base without amino acids (Difco 0919-15)+glucose+amino acids (adenine, histidine, tryptophan)). One of toxic chemical substances as shown below was added to the cells at logarithmic growth phase, and then the cells were further incubated for two hours.

[2] = tested on: promoter of yeast gene YLL057c; conditions: SC-YLL057C-pQBI cells; summary of Table 13
Text: as §1, §2
as §3, with “PQBI” for “pQBI”, “GALL” for “GAL1”, “YLL057c” for “YOR382w”, “4)” for “3)”
as §4
as §5, with “SC-YLL057C-pQBI” for “SC-YOR382W-pQBI”, “5” for “4”

[3] = tested on: promoter of yeast gene YLR303w; conditions: SC-YCR303W-pQBI cells (so in the source); summary of Table 14
Text: as §1, §2
as §3, with “YLR303w” for “YOR382w”, “5)” for “3)”
as §4
as §5, with “SC-YCR303W-pQBI” for “SC-YOR382W-pQBI”, “6” for “4”

[4] = SC-YOR382W-pQBI cells, summary of Table 12

Row | SMILES | expression of GFP [1] | expression of GFP [1, 4] | expression of GFP [2] | expression of GFP [3]
1 | Oc1ccccc1 [phenol] | induced the expression of GFP |  |  | 
2 | O=C(O)COc1ccc(Cl)cc1Cl [2,4-dichlorophenoxyacetic acid] |  | induced the expression of GFP | induced the expression of GFP | induced the expression of GFP
3 | c1ccc2c(c1)cc1ccc3cccc4ccc2c1c34 [benzo(a)pyrene] |  |  |  | induced the expression of GFP
4 | CCCCCCCCCc1ccc(O)cc1 [p-nonylphenol] |  | induced the expression of GFP |  | 
